# Measurements reported in US12459918B2, “Isoquinolinone derivatives serving as rock protein kinase inhibitors and use thereof” (GUANGZHOU OCUSUN OPHTHALMIC BIOTECHNOLOGY CO., LTD., priority 2019, dated 2025).
# Tested on: New Zealand rabbits with normal intraocular pressure
# Experiment: Reduction of intraocular pressure by repeated eye-drop administration for 14 days, experiment operation 1
# Format: in vivo
# Settings: for Change of intraocular pressure: negative control minus group
# Text: Experimental example 4. Experiment on reduction of intraocular pressure and ocular toxicity of New Zealand rabbits with normal intraocular pressure by repeated eye-drop administration for 14 days
# The intraocular pressure reduction action and the potential ocular toxicity of compound 63 were explored by 14 days of repeated eye-drop administration in rabbits with normal intraocular pressure.
# Male New Zealand rabbits, aged 97-127 days, weighted 2.6-3.5 kg, purchased from PizhouDongfang Breeding Co. Ltd.
# The male New Zealand rabbits were randomly divided into 7 groups, with 6 rabbits per group. Animals were randomly divided according to body weight Animals in 1-7 groups were eye-dropped with solvent/control sample/test sample in both eyes, the volume of the administration was all 50 μL/eye, once per day for 14 consecutive days, and the day of the administration was recorded as Day 1. On Day 1, intraocular pressure of the animals was measured before the administration and in 1, 2, 4, 6, 8 and 10 hours after the administration, respectively; on Days 2-14, intraocular pressure of the animals was measured in 1 hour after daily administration for the group administered with K-115, and intraocular pressure of the animal was measured in 4 hours after daily administration for the other groups.
# [1] = 2.0 mg/mL once per day, Day 7, 4 hours after daily administration
# [2] = 4.0 mg/mL once per day, Day 2, 4 hours after daily administration
# [3] = 4.0 mg/mL once per day, Day 3, 4 hours after daily administration
# [4] = 4.0 mg/mL once per day, Day 4, 4 hours after daily administration
# [5] = 4.0 mg/mL once per day, Day 5, 4 hours after daily administration
# [6] = 4.0 mg/mL once per day, Day 6, 4 hours after daily administration
# [7] = 4.0 mg/mL once per day, Day 7, 4 hours after daily administration
# [8] = 8.0 mg/mL once per day, Day 2, 4 hours after daily administration
# [9] = 8.0 mg/mL once per day, Day 3, 4 hours after daily administration
# [10] = 8.0 mg/mL once per day, Day 4, 4 hours after daily administration
# [11] = 8.0 mg/mL once per day, Day 5, 4 hours after daily administration
# [12] = 8.0 mg/mL once per day, Day 6, 4 hours after daily administration
# [13] = 8.0 mg/mL once per day, Day 7, 4 hours after daily administration
structure (smiles),measurement,setting,value
Cc1ccc(C(=O)OCn2cc(C)c3c(S(=O)(=O)N4CC[C@H](N)C4)cccc3c2=O)c(C)c1 [Compound 63],Mean intraocular pressure of both eyes,[1],5.78 mmHg
same,Change of intraocular pressure,[1],4.28 mmHg
same,Change of intraocular pressure,"2.0 mg/mL once per day, Day 8, 4 hours after daily administration",4.53 mmHg
same,Change of intraocular pressure,"2.0 mg/mL once per day, Day 9, 4 hours after daily administration",3.72 mmHg
same,Change of intraocular pressure,"2.0 mg/mL once per day, Day 10, 4 hours after daily administration",3.81 mmHg
same,Change of intraocular pressure,"2.0 mg/mL once per day, Day 11, 4 hours after daily administration",3.66 mmHg
same,Change of intraocular pressure,"2.0 mg/mL once per day, Day 12, 4 hours after daily administration",3.5 mmHg
same,Change of intraocular pressure,"2.0 mg/mL once per day, Day 13, 4 hours after daily administration",4.28 mmHg
same,Change of intraocular pressure,"2.0 mg/mL once per day, Day 14, 4 hours after daily administration",3.91 mmHg
same,Change of intraocular pressure,"2.0 mg/mL, Day 1, 1 hour after administration",1.75 mmHg
same,Change of intraocular pressure,"2.0 mg/mL, Day 1, 2 hours after administration",3.5 mmHg
same,Change of intraocular pressure,"2.0 mg/mL, Day 1, 4 hours after administration",3.84 mmHg
same,Change of intraocular pressure,"2.0 mg/mL, Day 1, 6 hours after administration",4.69 mmHg
same,Change of intraocular pressure,"2.0 mg/mL, Day 1, 8 hours after administration",4.53 mmHg
same,Change of intraocular pressure,"2.0 mg/mL, Day 1, 10 hours after administration",4.75 mmHg
same,Change of intraocular pressure,"2.0 mg/mL, Day 1, before administration",0.22 mmHg
same,Mean intraocular pressure of both eyes,"4 mg/mL both eyes, Day 1, 1 hour after administration",10.44 mmHg
same,Mean intraocular pressure of both eyes,"4 mg/mL both eyes, Day 1, 2 hours after administration",7.81 mmHg
same,Mean intraocular pressure of both eyes,"4 mg/mL both eyes, Day 1, 4 hours after administration",6.47 mmHg
same,Mean intraocular pressure of both eyes,"4 mg/mL both eyes, Day 1, 6 hours after administration",6.22 mmHg
same,Mean intraocular pressure of both eyes,"4 mg/mL both eyes, Day 1, 8 hours after administration",7.33 mmHg
same,Mean intraocular pressure of both eyes,"4 mg/mL both eyes, Day 1, 10 hours after administration",8.64 mmHg
same,Mean intraocular pressure of both eyes,"4 mg/mL both eyes, Day 1, before administration",9.67 mmHg
same,Mean intraocular pressure of both eyes,[2],6.53 mmHg
same,Change of intraocular pressure,[2],4.55 mmHg
same,Mean intraocular pressure of both eyes,[3],5.58 mmHg
same,Change of intraocular pressure,[3],4.81 mmHg
same,Mean intraocular pressure of both eyes,[4],5.53 mmHg
same,Change of intraocular pressure,[4],5.08 mmHg
same,Mean intraocular pressure of both eyes,[5],6.61 mmHg
same,Change of intraocular pressure,[5],4.36 mmHg
same,Mean intraocular pressure of both eyes,[6],5.47 mmHg
same,Change of intraocular pressure,[6],3.84 mmHg
same,Mean intraocular pressure of both eyes,[7],5.56 mmHg
same,Change of intraocular pressure,[7],4.5 mmHg
same,Change of intraocular pressure,"4.0 mg/mL once per day, Day 8, 4 hours after daily administration",4.53 mmHg
same,Change of intraocular pressure,"4.0 mg/mL once per day, Day 9, 4 hours after daily administration",3.97 mmHg
same,Change of intraocular pressure,"4.0 mg/mL once per day, Day 10, 4 hours after daily administration",4.67 mmHg
same,Change of intraocular pressure,"4.0 mg/mL once per day, Day 11, 4 hours after daily administration",3.86 mmHg
same,Change of intraocular pressure,"4.0 mg/mL once per day, Day 12, 4 hours after daily administration",3.64 mmHg
same,Change of intraocular pressure,"4.0 mg/mL once per day, Day 13, 4 hours after daily administration",4.36 mmHg
same,Change of intraocular pressure,"4.0 mg/mL once per day, Day 14, 4 hours after daily administration",4.64 mmHg
same,Change of intraocular pressure,"4 mg/mL, Day 1, 1 hour after administration",−0.13 mmHg
same,Change of intraocular pressure,"4 mg/mL, Day 1, 2 hours after administration",3.16 mmHg
same,Change of intraocular pressure,"4 mg/mL, Day 1, 4 hours after administration",4.84 mmHg
same,Change of intraocular pressure,"4 mg/mL, Day 1, 6 hours after administration",5.72 mmHg
same,Change of intraocular pressure,"4 mg/mL, Day 1, 8 hours after administration",5.64 mmHg
same,Change of intraocular pressure,"4 mg/mL, Day 1, 10 hours after administration",5.78 mmHg
same,Change of intraocular pressure,"4 mg/mL, Day 1, before administration",0.22 mmHg
same,Mean intraocular pressure of both eyes,"8.0 mg/mL both eyes, Day 1, 1 hour after administration",7.69 mmHg
same,Mean intraocular pressure of both eyes,"8.0 mg/mL both eyes, Day 1, 2 hours after administration",6.39 mmHg
same,Mean intraocular pressure of both eyes,"8.0 mg/mL both eyes, Day 1, 4 hours after administration",7.06 mmHg
same,Mean intraocular pressure of both eyes,"8.0 mg/mL both eyes, Day 1, 6 hours after administration",7.11 mmHg
same,Mean intraocular pressure of both eyes,"8.0 mg/mL both eyes, Day 1, 8 hours after administration",7.22 mmHg
same,Mean intraocular pressure of both eyes,"8.0 mg/mL both eyes, Day 1, 10 hours after administration",7.97 mmHg
same,Mean intraocular pressure of both eyes,"8.0 mg/mL both eyes, Day 1, before administration",10.17 mmHg
same,Mean intraocular pressure of both eyes,[8],6.33 mmHg
same,Change of intraocular pressure,[8],4.75 mmHg
same,Mean intraocular pressure of both eyes,[9],5.78 mmHg
same,Change of intraocular pressure,[9],4.61 mmHg
same,Mean intraocular pressure of both eyes,[10],5.97 mmHg
same,Change of intraocular pressure,[10],4.64 mmHg
same,Mean intraocular pressure of both eyes,[11],6.42 mmHg
same,Change of intraocular pressure,[11],4.55 mmHg
same,Mean intraocular pressure of both eyes,[12],5.56 mmHg
same,Change of intraocular pressure,[12],3.75 mmHg
same,Mean intraocular pressure of both eyes,[13],5.28 mmHg
same,Change of intraocular pressure,[13],4.78 mmHg
same,Change of intraocular pressure,"8.0 mg/mL once per day, Day 8, 4 hours after daily administration",5.59 mmHg
same,Change of intraocular pressure,"8.0 mg/mL once per day, Day 9, 4 hours after daily administration",4.25 mmHg
same,Change of intraocular pressure,"8.0 mg/mL once per day, Day 10, 4 hours after daily administration",4.19 mmHg
same,Change of intraocular pressure,"8.0 mg/mL once per day, Day 11, 4 hours after daily administration",4.16 mmHg
same,Change of intraocular pressure,"8.0 mg/mL once per day, Day 12, 4 hours after daily administration",3.97 mmHg
same,Change of intraocular pressure,"8.0 mg/mL once per day, Day 13, 4 hours after daily administration",4.72 mmHg
same,Change of intraocular pressure,"8.0 mg/mL once per day, Day 14, 4 hours after daily administration",4.03 mmHg
same,Change of intraocular pressure,"8.0 mg/mL, Day 1, 1 hour after administration",2.62 mmHg
same,Change of intraocular pressure,"8.0 mg/mL, Day 1, 2 hours after administration",4.58 mmHg
same,Change of intraocular pressure,"8.0 mg/mL, Day 1, 4 hours after administration",4.25 mmHg
same,Change of intraocular pressure,"8.0 mg/mL, Day 1, 6 hours after administration",4.83 mmHg
same,Change of intraocular pressure,"8.0 mg/mL, Day 1, 8 hours after administration",5.75 mmHg
same,Change of intraocular pressure,"8.0 mg/mL, Day 1, 10 hours after administration",6.45 mmHg
same,Change of intraocular pressure,"8.0 mg/mL, Day 1, before administration",−0.28 mmHg
same,Efficacy of a single dose (highest hypotensive effect and action duration),"all test doses (0.5-8.0 mg/mL), compared with K-115",superior efficacy
same,Hypotensive effect after 14 days of continuous administration,dose of 0.5 mg/mL,maintain a significant hypotensive effect
